Test results taken from patent publication US10064843B2, “Bis-amide derivative and use thereof” (University-Industry Cooperation Group of Kyung Hee …, priority 2013, dated 2018).

Legend:
HCV replicon cells = assay: Luciferase activity in HCV replicon cells; type: cell-based; details: Hepatitis C virus, 72 h, read-out: inhibition of luciferase activity of HCV
Experimental: Additionally, a series of compounds (WJCPA-1 to WJCPA-135) having the bis-amide structure as a parent structure in common, based on the inhibitory effect of WJCPA-126 against the PPIase activity, were synthesized and their activities were confirmed. Specifically, Huh7-rep cells were treated with each of the compounds at a concentration of 2 μM for 3 days, and the expression level of NS5A was confirmed by performing an immunoblot analysis according to a known method (FIG. 5). The 32 kinds of compounds confirmed to have excellent inhibitory effect especially against the NS5A expression from the immunoblot experiment were measured regarding their inhibitory effect against luciferase activity and the results are illustrated in FIG. 6. In the same manner as in western blot, the HCV replicon cells were treated with each of the compounds at a concentration of 2 μM and incubated for 72 hours, and the total cell lysate of the cultured cells were used for the analyses of western blot and the activity of luciferase.

murine splenocytes = assay: MTT cytotoxicity in murine splenocytes; type: cell-based, mouse; details: up to 10 μM; FIG. 8a
Experimental: Example 3: Isolation of Splenocytes from Mice and Cell Culture
Seven to eight week-old female Balb/c mice were purchased from Orient Bio, Inc. (Sungnam, Korea). Experimental animals were allowed to maintain at a non-pathogenic environment and adapted before the experiment. Experimental mice were sacrificed by dislocation of spine, and the spleens collected therefrom were removed into petri dishes filled with RPMI containing 10% FBS, 100 units/mL of penicillin, and 100 μg/mL of streptomycin. The spleens were dispersed through a nylon mesh to prepare a single cell suspension, and RBC was depleted by using RBC lysis buffer (Sigma, St. Louis, Mo.). Splenocytes were washed and cultured in RPMI complete medium.
Example 9: Analysis of Cytotoxicity
Cytotoxicity was analyzed in a 96-well plate using 5 mg/mL of MTT (3-(4,5-dimethylthiasol-2-yl)-2,5-diphenyltetrazolium bromide). The optical density of cells was measured at 550 nm using a microplate reader (Bio-Rad, Richmond, Calif., USA). Cell viability rate was expressed in percentage of the absorbance of treated cells relative to the absorbance of untreated cells.

in vitro = type: cell-based, hepatitis C virus; details: genotype 1b Con1b; FIG. 11a
Experimental: (§1) The effect of WJCPA-126 was determined in percentage of fluorescent cells in each image using sub-genotype 1b replicated cells. EC50 and CC50 were determined via nonlinear regression analysis using GraphPad Prism (GraphPad Software). The GFP expression level was quantitated and shown in the left panel. The images of GFP at the level of replicated cells were obtained while increasing the concentration of WJCPA-126 and are shown on the right panel.

[1] = test system: genotype 1b (Con1b) replication cells; assay: microbe, parasite or virus in culture; type: cell-based, hepatitis C virus; details: Hepatitis C virus
Experimental: as §1

[2] = molecular target: T1, GST-CypA and NS5A or NS5B (Homo sapiens, UniProt P62937); assay: GST pull-down assay of CypA with NS5A or NS5B; type: binding; details: 2 μM and 4 μM; FIG. 12b
T1 construct: made in house; host or cells: E. coli (pGEX-KG)
Experimental: Example 15: Expression and Purification of GST Proteins
A plasmid pGEX-KG was used for the expression of recombinant proteins in E. coli. GST-CypA, a mutant GST-CypAR55A (a mutation at PPIase site), GST-CypB, GST-NS5A, and the full length GST-NS5B were prepared by a standard replication process. The bacteria expression vector, pGEX-KG, was transformed into TOPIOF cells (Promega, Madison, Wis., USA). The bacteria culture was grown in LB medium containing 100 μg/mL of ampicillin until the optical density at 600 nm reached 0.8 to 1.0. Then, 0.1 mM isopropyl β-D-1-thiogalactopyranoside (IPTG) was added thereto to induce the expression of a GST fusion protein and incubated further at 30° C. for 4 hours. The resulting bacteria was pelleted by centrifugation at 340 g for 20 minutes at 4° C., resuspended in 10 mL PBST (PBS containing 1% Triton X-100), added with 1 mM PMSF, and subjected to sonication at 25% amplitude with a brake at intervals of 10 seconds for 30 minutes. Upon sonication, the bacteria extract was centrifuged at 340 g for 5 minutes at 4° C. and the supernatant containing GST protein was stored at −80° C. The GST fusion protein was cleaved in thrombin-cleaving buffer containing 50 units of thrombin overnight so that the recombinant proteins could be released from the GST-tagged glutathione resin. […]

[3] = test system: STAT1, STAT2, IRF9, OAS1, and ISG15; assay: Real-time qRT-PCR of interferon-stimulated genes in HCV replicon cell; type: cell-based, human; details: 2 μM; FIG. 14
Experimental: Example 19: Real-Time Quantitative Reverse Transcriptase PCR Analysis
Real-time quantitative reverse transcriptase PCR (qRT-PCR) was performed using SYBR Green PCR Master Mix (Invitrogen/Applied Biosystem, Carlsbad, Calif., USA) and ABI Prism 7300 Real-time PCR System (Applied Biosystems, Carlsbad, Calif., USA) according to the manufacturer's instructions. Calculations were performed based on […] method using the following equation: R (ratio)=2-[ΔCT (sample)-ΔCT (control group)]. The data were expressed as fold change of the treated group relative to the control group and standardized relative to the glyceraldehyde 3-phosphate dehydrogenase (GAPDH) level.

T1 sequence (P62937 whole entry): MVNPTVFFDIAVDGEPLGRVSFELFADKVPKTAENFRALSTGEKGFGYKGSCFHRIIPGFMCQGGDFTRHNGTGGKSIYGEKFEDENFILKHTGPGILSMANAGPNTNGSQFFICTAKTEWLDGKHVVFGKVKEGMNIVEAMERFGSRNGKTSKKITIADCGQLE

## COc1cc(C(C(=O)NC2CCCCC2)N(C(=O)Cc2c[nH]c3ccccc23)c2ccc(C(C)C)cc2)cc(OC)c1OC (stereo not drawn) [WJCPA-126, N-cyclohexyl-2-[(2-1H-indol-3-yl-acetyl)-(4-isopropyl-phenyl)-amino]-2-(3,4,5-trimethoxy-phenyl)-acetamide]
HCV replicon cells
  inhibition at 2 µM: ≤ 80%
Murine splenocytes
  cytotoxicity in mouse splenocytes: no cytotoxicity
In vitro
  CC50: 12.4 ± 2.1 µM
[1]
  EC50: 0.73 ± 0.1 µM
[2]
  binding between GST-CypA and NS5A or NS5B: significant decrease of the binding between GST-CypA and NS5A or NS5B
[3]
  mRNA expression levels of STAT1, STAT2, IRF9, OAS1, and ISG15: increase the mRNA expression levels of STAT1, STAT2, IRF9, OAS1, and ISG15 in a time-dependent manner
